One experiment has as its target T1, CFTR ΔF508 mutant (Homo sapiens, UniProt P13569, DEL508-508).
T1 construct: expressed in transfected cells; host or cells: CFBE41o- cells, adenoviral transduction
The experiment can be described thus: YFP-halide influx assay for the CFTR-ΔF508 mutation (CFBE41o- cells). The format is cell-based. Particulars: forskolin 10.67 μM; for EC50: from (1−F/F0) vs concentration plot. The procedure, abridged: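 EC50 derived from plotting 1−F/F0 (fluorescence 36 s after iodide injection over pre-injection value) against compound concentration. Cells: CFBE41o- transduced with ΔF508-CFTR and YFP quench reporter, corrected 24 h at 27° C or by a CFTR modulator at 37° C.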

The next experiment concerns the target T2, CFTR G551D mutant (Homo sapiens, UniProt P13569, G551D).
T2 construct: expressed in transfected cells; host or cells: HEK293 cells, reverse transfection with plasmids
The experiment can be described thus: YFP-halide influx assay for the CFTR-G551D mutation (HEK293 cells). Format: cell-based. Particulars: forskolin 10.67 μM. The procedure, abridged:
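Channel opening read as I⁻-driven quenching of a YFP H148Q/I152L/F47L reporter over 7 s post-injection, expressed as 1−F/F0 and fitted against concentration for EC50. Cells were HEK293 co-transfected at seeding with G551D CFTR plus reporter, then grown 24 h at 37 °C, 5% CO2.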

T1 sequence (P13569 with tags, fused parts or gaps DEL508-508): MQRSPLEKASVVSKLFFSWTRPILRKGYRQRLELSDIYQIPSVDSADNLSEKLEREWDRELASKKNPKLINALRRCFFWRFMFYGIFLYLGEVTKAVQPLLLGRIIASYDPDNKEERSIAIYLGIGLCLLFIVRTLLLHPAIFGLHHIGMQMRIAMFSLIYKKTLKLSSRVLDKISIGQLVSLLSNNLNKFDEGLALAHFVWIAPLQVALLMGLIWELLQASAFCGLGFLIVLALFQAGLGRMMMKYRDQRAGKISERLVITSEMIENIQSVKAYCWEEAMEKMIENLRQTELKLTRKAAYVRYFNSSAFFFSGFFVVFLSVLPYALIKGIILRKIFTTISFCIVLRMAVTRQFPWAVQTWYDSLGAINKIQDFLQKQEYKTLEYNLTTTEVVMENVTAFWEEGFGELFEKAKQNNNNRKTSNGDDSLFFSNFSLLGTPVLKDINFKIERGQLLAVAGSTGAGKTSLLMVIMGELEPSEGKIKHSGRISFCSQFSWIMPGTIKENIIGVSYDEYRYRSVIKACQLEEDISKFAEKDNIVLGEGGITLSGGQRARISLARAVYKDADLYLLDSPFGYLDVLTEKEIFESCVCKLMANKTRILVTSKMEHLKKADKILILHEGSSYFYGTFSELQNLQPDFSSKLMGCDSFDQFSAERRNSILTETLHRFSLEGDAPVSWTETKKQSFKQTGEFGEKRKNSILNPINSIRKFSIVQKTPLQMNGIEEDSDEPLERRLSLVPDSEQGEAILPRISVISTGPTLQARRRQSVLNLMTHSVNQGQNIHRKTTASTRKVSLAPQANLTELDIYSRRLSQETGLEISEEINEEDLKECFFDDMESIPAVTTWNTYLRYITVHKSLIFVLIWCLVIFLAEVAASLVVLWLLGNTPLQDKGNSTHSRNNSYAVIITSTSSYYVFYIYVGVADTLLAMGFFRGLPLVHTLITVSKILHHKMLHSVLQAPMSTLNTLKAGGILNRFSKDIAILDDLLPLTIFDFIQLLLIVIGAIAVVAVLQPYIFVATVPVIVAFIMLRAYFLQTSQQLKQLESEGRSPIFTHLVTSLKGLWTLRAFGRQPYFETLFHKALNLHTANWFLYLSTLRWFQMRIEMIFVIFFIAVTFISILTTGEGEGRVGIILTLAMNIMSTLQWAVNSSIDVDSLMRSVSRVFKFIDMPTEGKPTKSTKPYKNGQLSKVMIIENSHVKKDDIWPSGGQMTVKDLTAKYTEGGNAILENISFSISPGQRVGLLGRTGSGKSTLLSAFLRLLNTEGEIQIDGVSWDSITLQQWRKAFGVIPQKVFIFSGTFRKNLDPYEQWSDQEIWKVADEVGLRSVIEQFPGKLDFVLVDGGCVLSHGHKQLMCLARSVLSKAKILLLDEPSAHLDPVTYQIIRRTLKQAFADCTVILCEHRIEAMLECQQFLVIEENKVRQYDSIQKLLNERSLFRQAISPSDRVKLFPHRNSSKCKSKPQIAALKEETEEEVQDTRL
T2 sequence (P13569 whole entry G551D): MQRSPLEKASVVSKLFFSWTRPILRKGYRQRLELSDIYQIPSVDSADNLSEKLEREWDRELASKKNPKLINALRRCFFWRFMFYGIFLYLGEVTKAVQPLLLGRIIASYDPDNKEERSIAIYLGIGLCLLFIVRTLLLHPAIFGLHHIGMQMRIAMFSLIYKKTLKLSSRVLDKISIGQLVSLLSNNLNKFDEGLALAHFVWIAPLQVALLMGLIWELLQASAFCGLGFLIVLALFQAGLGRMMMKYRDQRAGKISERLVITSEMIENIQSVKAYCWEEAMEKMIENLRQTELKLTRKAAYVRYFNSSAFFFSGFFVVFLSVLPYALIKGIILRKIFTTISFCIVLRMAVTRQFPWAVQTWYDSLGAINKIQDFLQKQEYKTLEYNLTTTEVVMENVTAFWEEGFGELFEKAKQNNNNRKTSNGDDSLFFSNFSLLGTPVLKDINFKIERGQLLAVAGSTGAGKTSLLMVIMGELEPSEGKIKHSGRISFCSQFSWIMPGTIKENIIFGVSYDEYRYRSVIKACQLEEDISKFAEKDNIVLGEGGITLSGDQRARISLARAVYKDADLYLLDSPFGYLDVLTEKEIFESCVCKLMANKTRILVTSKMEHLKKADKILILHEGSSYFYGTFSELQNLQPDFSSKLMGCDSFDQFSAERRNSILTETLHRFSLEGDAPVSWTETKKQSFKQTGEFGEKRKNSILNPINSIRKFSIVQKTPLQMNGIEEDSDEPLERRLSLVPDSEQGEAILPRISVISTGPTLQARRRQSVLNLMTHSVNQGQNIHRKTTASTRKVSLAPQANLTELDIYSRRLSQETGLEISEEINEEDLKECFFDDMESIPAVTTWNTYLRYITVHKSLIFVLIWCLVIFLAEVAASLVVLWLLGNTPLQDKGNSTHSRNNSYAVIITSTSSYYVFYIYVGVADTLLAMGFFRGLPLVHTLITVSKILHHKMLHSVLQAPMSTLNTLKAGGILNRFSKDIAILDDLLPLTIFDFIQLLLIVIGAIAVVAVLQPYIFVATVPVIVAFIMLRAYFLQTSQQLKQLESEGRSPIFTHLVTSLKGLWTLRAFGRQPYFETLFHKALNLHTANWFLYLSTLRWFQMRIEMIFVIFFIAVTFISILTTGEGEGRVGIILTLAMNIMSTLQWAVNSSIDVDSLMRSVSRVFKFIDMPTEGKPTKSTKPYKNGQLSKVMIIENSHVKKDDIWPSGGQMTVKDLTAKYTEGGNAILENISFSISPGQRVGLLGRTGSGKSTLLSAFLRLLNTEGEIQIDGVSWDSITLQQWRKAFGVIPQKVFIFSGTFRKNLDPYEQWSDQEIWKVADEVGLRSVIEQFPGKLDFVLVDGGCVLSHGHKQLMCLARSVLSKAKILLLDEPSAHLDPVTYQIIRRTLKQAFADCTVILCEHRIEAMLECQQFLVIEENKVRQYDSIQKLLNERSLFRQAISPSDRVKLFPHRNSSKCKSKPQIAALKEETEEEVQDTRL

What is called EC50 is the concentration giving half of the maximal effect. The low end stands for greater potency, the high end for weaker potency. On to `Nc1cc(S(=O)(=O)c2ccc(C(F)(F)F)cc2)cnc1C(=O)NCC(F)(F)F` [Compound 209, 3-amino-N-(2,2,2-trifluoroethyl)-5-{[4-(trifluoromethyl)phenyl]sulfonyl}pyridine-2-carboxamide], for which, at CFTR ΔF508 mutant, the “% Activation” value came out at 93.8% and the EC50 amounted to 36.2 nM. For the same compound, on CFTR G551D mutant, the “% Activation” value was 39.3% and the EC50 was greater than 10000 nM.

`CN1CC[C@H](NC(=O)c2ncc(S(=O)(=O)c3ccc(OC(F)(F)F)cc3)cc2N)C1` [Compound 207, 3-amino-N-[(3S)-1-methylpyrrolidin-3-yl]-5-{[4-(trifluoromethoxy)phenyl]sulfonyl}pyridine-2-carboxamide]: at CFTR ΔF508 mutant, the “% Activation” value is on record as 78.0% and the EC50 was greater than 667 nM. On CFTR G551D mutant, the “% Activation” value was found to be 15.0% and the EC50 was greater than 10000 nM.

For `Nc1cc(S(=O)(=O)c2ccc(OC(F)(F)F)cc2)cnc1C(=O)NC1CCOCC1` [Compound 146, 3-amino-N-(tetrahydro-2H-pyran-4-yl)-5-{[4-(trifluoromethoxy)phenyl]sulfonyl}pyridine-2-carboxamide], on CFTR ΔF508 mutant, the “% Activation” value is 88.4% and the EC50 amounted to 91.4 nM. On CFTR G551D mutant, the “% Activation” value is recorded as 58.4% and a half-maximal response (EC50) required 3110 nM.

In the case of `C[C@H](O)CNC(=O)c1nc(NC2CC2)c(S(=O)(=O)c2ccc(OC(F)(F)F)cc2)cc1N` [Compound 285, 3-amino-6-(cyclopropylamino)-N-[(2S)-2-hydroxypropyl]-5-{[4-(trifluoromethoxy)phenyl]sulfonyl}pyridine-2-carboxamide], the “% Activation” value at CFTR ΔF508 mutant is 86.7%; at CFTR G551D mutant, 52.5%. Besides, the EC50 on CFTR ΔF508 mutant was 4.2 nM; at CFTR G551D mutant it was 776 nM.

Regarding `Nc1cc(S(=O)(=O)c2ccccc2OC(F)(F)F)cnc1C(=O)N1CC(O)C1` [Compound 76, (3-amino-5-{[2-(trifluoromethoxy)phenyl]sulfonyl}pyridin-2-yl)(3-hydroxyazetidin-1-yl)methanone], the “% Activation” value at CFTR ΔF508 mutant was found to be 112.0%; at CFTR G551D mutant it was 54.3%. In addition, the EC50 on CFTR ΔF508 mutant was 4.3 nM; at CFTR G551D mutant, greater than 3330 nM.

For the compound `CC(C)OCC(O)CNC(=O)c1ncc(S(=O)(=O)c2ccc(OC(F)(F)F)cc2F)cc1N` (stereo not drawn) [Compound 168, 3-amino-5-{[2-fluoro-4-(trifluoromethoxy)phenyl]sulfonyl}-N-[2-hydroxy-3-(propan-2-yloxy)propyl]pyridine-2-carboxamide], at CFTR ΔF508 mutant, the “% Activation” value is given as 103.5% and the midpoint of the response, the EC50, lay at 9.6 nM. Also, at CFTR G551D mutant, the “% Activation” value came out at 82.4% and a half-maximal response (EC50) required 539 nM.

As to `C[C@H](O)CNC(=O)c1nc(N(C)C)c(S(=O)(=O)c2ccc(OC(F)(F)F)cc2)cc1N` [Compound 283, 3-amino-6-(dimethylamino)-N-[(2S)-2-hydroxypropyl]-5-{[4-(trifluoromethoxy)phenyl]sulfonyl}pyridine-2-carboxamide], the figures for the “% Activation” value at CFTR ΔF508 mutant and at CFTR G551D mutant were 93.3% and 96.5%, respectively. Further, the 50% effective concentration (EC50) stood at 5.1 nM at CFTR ΔF508 mutant and 2620 nM at CFTR G551D mutant.

As to `Nc1cc(S(=O)(=O)c2ccc(OC(F)(F)F)cc2F)cnc1C(=O)NC[C@@H]1CCOC1` [Compound 116, 3-amino-5-{[2-fluoro-4-(trifluoromethoxy)phenyl]sulfonyl}-N-[(3S)-tetrahydrofuran-3-ylmethyl]pyridine-2-carboxamide], at CFTR ΔF508 mutant, the “% Activation” value is listed as 101.1% and the EC50 worked out at 27.7 nM. At CFTR G551D mutant, the “% Activation” value came to 50.0% and the concentration giving a half-maximal response (EC50) turned out to be 1400 nM.

For the compound `CN(Cc1ccc(F)cc1F)S(=O)(=O)c1cnc(C(=O)NCC(O)C(F)(F)F)c(N)c1` (stereo not drawn) [Compound 137, 3-amino-5-[(2,4-difluorobenzyl)(methyl)sulfamoyl]-N-(3,3,3-trifluoro-2-hydroxypropyl)pyridine-2-carboxamide], on CFTR ΔF508 mutant, the “% Activation” value came out at 110.7% and the response was half-maximal at 3.7 nM (EC50). At CFTR G551D mutant, the “% Activation” value turned out to be 69.6% and the EC50 stood at 420 nM.

For the origin of these results see patent US10047051B2, “Substituted pyridines and method of use” (AbbVie S.á{acute over (.)}r.l., priority 2015, dated 2018).
